{"source": "patent US8299085B2", "about": "“Quinazoline derivatives” (Novartis AG, priority 2004, dated 2012)", "key": {"AMPA receptor": {"target": "AMPA receptor", "assay": "[3H] CNQX binding test (AMPA-receptor binding), brain membranes", "details": "5 nM [3H]-CNQX, 4° C., 40 min", "method": "CNQX binding test (Honoré et al. Biochem. Pharmacol. 1989, 38: 3207-3212). This test is performed as follows:\nBrain membranes: The animals are decapitated, the brain removed and homogenized in 10 volumes of ice-cold 10% sucrose with a glass/Teflon homogenizer at positions 5 for 30 sec. The membranes are centrifuged at 1000×g for 10 min, and the supernatant centrifuged at 20,000×g for 15 min. The resulting pellet is resuspended in 10 volumes of cold water with a tissue homogenizer (Brinkman Polytron) at position 5 for 15 sec and the suspension centrifuged at 8000×g for 10 min. The supernatant including the buffy layer is centrifuged at 40,000×g for 20 min, the pellet resuspended in 5 volumes of water and the suspension frozen (20-30 min in dry ice/methanol) and thawed (water-bath at 37° C.) twice. The suspension is centrifuged at 40,000×g for 20 min, the pellet resuspended in 50 mM HEPES/KOH, pH 7.5, and centrifuged at 40,000×g for 10 min. […]\nRadioligand binding assay: It is performed using 96-well microtiterplates in a volume of 0.3 ml of 50 mM HEPES/KOH, pH 7.2, 100 μg membrane protein, 5 nM [^3H]-CNQX (NEN) and the compound to be tested. […] Two hundred μl of the scintillation fluid Microscint 20 (Packard) are added and the radioactivity is counted in a Packard Topcount scintillation counter at an efficiency of 40-45%. […]"}, "[1]": {"target": "T1, rat GluR3-(flop) AMPA receptor (Rattus norvegicus, UniProt P19492)", "T1 construct": "expressed in transfected cells; host or cells: Xenopus laevis oocytes (cRNA injection)", "T1 sequence (P19492 23-888)": "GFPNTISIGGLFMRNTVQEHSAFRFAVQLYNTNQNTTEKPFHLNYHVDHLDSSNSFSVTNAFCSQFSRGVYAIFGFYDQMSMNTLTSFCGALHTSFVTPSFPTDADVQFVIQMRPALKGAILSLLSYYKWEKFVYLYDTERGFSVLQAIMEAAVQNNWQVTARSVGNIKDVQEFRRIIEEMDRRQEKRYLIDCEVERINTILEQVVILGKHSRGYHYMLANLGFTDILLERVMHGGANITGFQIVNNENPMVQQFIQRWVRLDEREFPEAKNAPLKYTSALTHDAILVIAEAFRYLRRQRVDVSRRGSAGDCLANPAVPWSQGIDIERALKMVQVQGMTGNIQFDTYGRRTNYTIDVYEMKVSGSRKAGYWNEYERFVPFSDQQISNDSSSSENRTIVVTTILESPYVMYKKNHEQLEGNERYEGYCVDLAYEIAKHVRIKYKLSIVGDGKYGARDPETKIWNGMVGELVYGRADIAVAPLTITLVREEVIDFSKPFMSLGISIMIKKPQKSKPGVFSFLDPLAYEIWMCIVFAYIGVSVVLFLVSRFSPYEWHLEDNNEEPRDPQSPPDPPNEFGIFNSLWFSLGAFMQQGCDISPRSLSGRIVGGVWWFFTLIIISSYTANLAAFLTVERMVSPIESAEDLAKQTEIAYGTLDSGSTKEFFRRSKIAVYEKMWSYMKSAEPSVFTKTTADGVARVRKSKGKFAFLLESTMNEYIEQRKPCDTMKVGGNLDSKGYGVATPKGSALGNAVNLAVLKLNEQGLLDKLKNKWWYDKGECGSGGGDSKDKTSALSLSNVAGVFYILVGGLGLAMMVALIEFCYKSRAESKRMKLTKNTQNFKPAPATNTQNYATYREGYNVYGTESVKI", "assay": "Functional test for AMPA-receptor activity, two electrode voltage clamp in Xenopus laevis oocytes", "format": "cell-based", "details": "Xenopus oocytes expressing rGluR3-(flop); read-out: IC50-value, antagonist at the rGluR3 AMPA receptor", "method": "For the determination of functional agonism or antagonism at the AMPA-receptor, experiments can be performed on Xenopus oocytes as previously described in detail (Urwyler et al., Mol. Pharmacol. 2001, 60, 963-971). Briefly, two electrode voltage clamp recordings are performed from Xenopus laevis oocytes expressing GluR3 AMPA receptors. Plasmids for the rat GluR3-(flop) (Hollmann et al., Science 1991, 252, 851-853) are linearized and transcribed into capped cRNA using an in vitro RNA synthesis kit (Ambion, Tex.) with T7 Polymerase. Stock solutions are kept in 70% ethanol. Before use, cRNA is precipitated and resuspended in DEPC-treated water. Oocytes are injected with RNA coding the rat GluR3-(flop) AMPA receptor. For recordings, oocytes are placed in a perfusion chamber with continuous gravity flow of frog Ringer's solution. For recordings from oocytes expressing rGluR3-(flop) receptors frog, Ringer's solution containing Mg^2+ (81 mM NaCl; 2.5 mM KCl; 1 mM CaCl2; 1 mM MgCl2, 2.5 mM NaHCO3, 5 mM HEPES, pH 7.4) is used. Test compounds are washed in with gravity."}, "[2]": {"tested_on": "patients with diabetic neuropathy", "assay": "Clinical study, chronic pain in patients with diabetic neuropathy", "format": "in vivo, human", "details": "2400 mg/day, Maintenance and Follow-up Periods, statistically significant", "method": "Patients are randomized to receive 2400 mg/day of the compound or placebo in a 1:1 ratio.\nThe study consists of a Pre-randomization Phase (1 week) and a Double-blind Phase (5 weeks). The double-blind Phase consists of three periods: a one week Titration Period, a three-week Maintenance Period and a one-week Follow-up Period.\nDuring the 1-week Pre-randomization Phase, the eligibility of the patients is evaluated. Patients meeting all inclusion/exclusion criteria are randomized to either the compound or placebo in the Double-blind Phase. During the 1-week Titration Period, study medication is up-titrated from 800 mg/day (given b.i.d.) to 2400 mg/day (given b.i.d.). Patients who complete the 1-week Titration Period then enter the 3-week Maintenance Period. Patients who complete the 3-week Maintenance period or prematurely discontinue double-blind treatment then enter the 1-week Follow-up Period. Study medication is completely withdrawn on entry into the Follow-up Period. During the Double-blind Phase, serial efficacy and safety assessments are obtained. […]\nThe SF-MPQ total pain score at the end of the Maintenance Period is analyzed using an analysis of covariance model adjusting for the effect of treatment on post-treatment scores by using the baseline SF-MPQ total pain score as a covariate. Average weekly pain severity is analyzed using an analysis of covariance model with repeated measures using the treatment week and the mean pain severity rating during the Pre-randomization Phase as covariates. Usage of rescue medication during the Double-blind Phase is analyzed using the Cochran-Mantel-Haenszel test controlling for center. The mean pain severity rating during the Follow-up Period (rebound pain) is analyzed using an analysis of covariance model adjusting for the effect of treatment on the mean pain severity rating of the Follow-up Period with the mean pain severity rating during the Prerandomization Phase as a covariate."}, "Wistar Kyoto rats [3]": {"tested_on": "Wistar Kyoto rats", "assay": "Test 2: NMDA-channel blocker induced head swaying and circling", "format": "in vivo, rat", "details": "10 mg/kg s.c., alone", "method": "Adult male Wistar Kyoto rats (340-380 g; Iffa Credo, Lyon, France) are used. The animals are randomized to the following treatment groups (n=10 per group): the compound (dosed 0, 3 or 10 mg/kg) followed by phencyclidine (PCP; an NMDA channel blocker, dosed 0 or 10 mg/kg). Compound (at t=−15 min) and PCP (at t=0 min) are administered s.c. in a volume of 1 ml/kg. Video-recordings of the animals behaviour over the period 0-30 min following PCP are scored by an observer who is unaware about the animals pretreatment. Head-swaying (rocking the head repeatedly by at least 2 cm left and right) and circling (turning around by using the forepaws, whereas the hindpaws remain more or less on the original position) are scored as present (1) or absent (0), every five minutes for the duruation of 1 minute. The scores for individual animals is summed and group scores used for statistical analysis (t-test with Bonferroni correction)."}, "Wistar Kyoto rats [4]": {"tested_on": "Wistar Kyoto rats", "assay": "Test 1: NMDA-antagonist induced locomotion", "format": "in vivo, rat", "details": "10 mg/kg s.c.", "method": "Male Wistar Kyoto rats (Iffa Crédo, Lyon, France) weighing between 250 and 310 g are used. In principle 4 treatment groups are formed: 1) the compound (doses 1, 3 or 10 mg/kg) followed by the competitive NMDA receptor antagonist (S)-2-amino-3-(2′-chloro-5-phosphonomethyl-biphenyl-3-yl)-propionic acid, hereinafter SDZ 220-581 (10 mg/kg), 2) solvent-pretreatment followed by SDZ 220-581 (10 mg/kg), 3) solvent followed by solvent, 4) the compound (1, 3, 10 mg/kg) followed by solvent. Rats are randomly allocated to these pretreatment groups (n=10/dose group). Drugs are administered subcutaneous (s.c.), 15 min prior to SDZ 220-581. Immediately after the animals received SDZ 220-581, they are placed into the activity monitor for a period of 60 min. Locomotor activity is analysed over the initial 30 minutes.\nLocomotion is recorded with a videotracking system (VideoMot2, TSE Technical and Scientific Equipment GmbH, Bad Hombourg, Germany), using a closed circuit digital videocamera (WV-BP.330/GE, Panasonic, Osaka, Japan). The video-signal from the camera is digitized and used for data analysis. […] The camera is placed such, that four animals (one per arena) can be recorded simultaneously."}}, "data": [{"smiles": "CN(C)c1cc2c(=O)n(NS(C)(=O)=O)c(=O)[nH]c2cc1[N+](=O)[O-]", "note": "[Example 4, N-(6-Dimethylamino-7-nitro-2,4-dioxo-1,4-dihydro-2H-quinazolin-3-yl)-methanesulfonamide]", "values": [{"measurement": "IC50", "setting": "AMPA receptor", "value": 0.29, "unit": "µM"}, {"measurement": "IC50", "setting": "[1]", "value": 2.3, "unit": "µM"}]}, {"smiles": "CN(CCO)c1cc2c(=O)n(NS(C)(=O)=O)c(=O)[nH]c2cc1C(F)(F)F", "note": "[Example 83, N-{6-[(2-Hydroxy-ethyl)-methyl-amino]-2,4-dioxo-7-trifluoromethyl-1,4-dihydro-2H-quinazolin-3-yl}-methanesulfonamide]", "values": [{"measurement": "pain severity ratings relative to placebo", "setting": "[2]", "value": "decrease pain severity ratings relative to placebo"}]}, {"smiles": "c1ccc(C2(N3CCCCC3)CCCCC2)cc1", "note": "[PCP, phencyclidine]", "values": [{"measurement": "head-swaying and circling", "setting": "Wistar Kyoto rats [3]", "value": "induces weak head-swaying and circling"}]}, {"smiles": "N[C@@H](Cc1cc(CP(=O)(O)O)cc(-c2ccccc2Cl)c1)C(=O)O", "note": "[SDZ 220-581, (S)-2-amino-3-(2′-chloro-5-phosphonomethyl-biphenyl-3-yl)-propionic acid]", "values": [{"measurement": "distance walked during 30 min", "setting": "Wistar Kyoto rats [4]", "value": "approximately 30 m"}]}]}
